Measurements from US10111885B2, “Compositions and therapeutic methods for the treatment of complement-associated diseases” (Resverlogix Corp., priority 2015, dated 2018).
Where two headings read alike, the source gives them in different places.

Tests used:
C3 mRNA = assay: Complement gene mRNA expression, TaqMan real-time PCR, Huh-7 cells; type: cell-based, human; settings: for IC50: Homo sapiens
Text: (§1) In this example, mRNA levels from cultured cells were quantitated. The assay can be used to determine the effect of compound(s) on regulating mRNA levels, including those compounds in the present invention. Complement genes are expressed at high endogenous levels, but their expression can also be stimulated with various cytokines in inflammatory conditions. Experiments in this example target both basal and inflammatory complement gene expression. Compound mediated changes in gene expression and resulting mRNA levels are presented in Tables 2, 3 and 4 as well as FIGS. 1, 2, 3 and 4 below.
(§2) Huh-7 and HepG2 cells are liver-derived cell lines and are models for what can occur in the liver. Huh-7 cells (JCRB Cell Bank) were introduced to 96-well plates (^˜2.5×10^5 per well) in 100 μL DMEM containing 10% (v/v) FBS, 100 U/mL penicillin, 100 ug/mL streptomycin and 5 ug/mL plasmocin (all reagents from Gibco, except for the former, which was obtained from Invivogen). After 24 h, Huh-7 cells were treated with compounds in the same media formulation used for plating, and supplemented with 0.1% DMSO for the amount of time indicated in tables 2, 3, and 4. For select experiments, 24 h post-plating, cells were treated with cytokines and the compound of interest simultaneously, for a total treatment time of 48 h. Alternatively, 24 h after plating, cells were pre-treated with cytokines for 24 h before adding the compound of interest for 48 h. HepG2 cells (ATCC) were cultured in 96-well plates (^˜2.5×10^5 per well) in MEM containing 10% FBS, 1× non-essential amino acids, 1 mM sodium pyruvate, 2 mM L-glutamine, 100 U/mL penicillin, 100 ug/mL streptomycin and 5 ug/mL plasmocin. Serum amount was reduced to 0.5% for treatments with compound or cytokines. Timing of treatment of HepG2 cells with compounds and cytokines was as described for Huh-7 cells. Primary human hepatocytes (CellzDirect/Life Technologies) were plated in collagen coated 96-well plates at 70 000 cells/well, then overlaid with Matrigel™ as recommended by the supplier. Cells were treated with compounds of interest and/or cytokines for the indicated time points in the recommended media supplemented with 0.1% DMSO and 10% FBS (v/v). Cells were harvested by mRNA Catcher PLUS Kit (Life Technologies) followed by real-time PCR using the RNA UltraSense One-Step qRT-PCR System. The level of the mRNA of interest was measured by TaqMan real-time PCR relative to the endogenous control cyclophilin A in the same sample. Data were acquired using the ViiA-7 Real Time PCR System (Applied Biosystems).
(§3) Downregulation of expression of components of the complement cascade will result in reduced activity of the pathway and thus will constitute a positive result. Tables 2 and 3 list the concentration of compounds at which the level of the indicated mRNA is reduced by 50%, as well as the duration of treatment with compound. Table 4 lists the maximum reduction in the indicated mRNA measured in primary human hepatocytes treated with compounds for up to 72 hours. FIGS. 1, 2, 3 and 4 show effects of compounds on cytokine-induced (i.e. inflammatory) expression of complement genes in Huh-7 cells and HepG2 cells.

C4a/C4b mRNA = assay: as above; type: cell-based, human; settings: for IC50: Homo sapiens
Text: as §1, §2, §3

C5 mRNA = assay: as above; type: cell-based, human; settings: for IC50: Homo sapiens
Text: as §1, §2, §3

C1S mRNA = assay: as above; type: cell-based; settings: Homo sapiens; Huh-7, 48 h treatment; read-out: C1S (48 h) mRNA, half maximal inhibitory concentration (IC50)
Text: as §1
as §2, with “Data were acquired using the ViiA-7 Real Time PCR System (Applied Biosystems).” left out
(§4) Downregulation of expression of components of the complement cascade will result in reduced activity of the pathway and thus will constitute a positive result. […] Table 4 lists the maximum reduction in the indicated mRNA measured in primary human hepatocytes treated with compounds for up to 72 hours. […]

MBL2 mRNA = assay: as above; type: cell-based; settings: Homo sapiens; Huh-7, 48 h treatment; read-out: MBL2 (48 h) mRNA, half maximal inhibitory concentration (IC50)
Text: as §1
as §2, with “Data were acquired using the ViiA-7 Real Time PCR System (Applied Biosystems).” left out
as §4

complement C3 protein = assay: Secreted complement protein ELISA, HepG2 cells; type: cell-based, human; settings: HepG2, 72 h, ± standard deviation
Method: (§5) In this example, protein secretion from cells grown in culture in the presence of compound of interest was analyzed by enzyme linked immunosorbent assay (ELISA). In some cases, cultured cells were treated with cytokines and the compound of interest to mimic an inflammatory state. The method can be used to determine the effect of compounds, including those in the present invention, on the secretion of specific proteins from cells grown in culture under basal and cytokine stimulated (i.e. inflammatory) conditions (Table 7, FIGS. 5 and 6).
(§6) Huh-7 cells (JCRB Cell Bank) were introduced to 24-well plates in 500 μL DMEM supplemented with 10% (v/v) FBS, 100 U/mL penicillin, 100 ug/mL streptomycin and 5 ug/mL plasmocin (all reagents from Gibco, except for the former, which comes from Invivogen) at 200 000 cells/well. After 24 h, cells were treated with the compound of interest and/or cytokines in DMEM with 10% FBS containing 0.1% DMSO for a total treatment time of 72 h. Fresh media containing compounds and/or cytokines was introduced in the final 24 h of the experiment. At harvest, media were collected, debris was removed by brief centrifugation, and ELISA assays for the indicated proteins were performed as per the manufacturer's protocol. To correct for differences in cell numbers, values obtained for complement proteins were normalized to values for transferrin. HepG2 cells (ATCC) were cultured in MEM containing 10% FBS, 1× non-essential amino acids, 1 mM sodium pyruvate, 2 mM L-glutamine, 100 U/mL penicillin, 100 ug/mL streptomycin and 5 ug/mL plasmocin. Serum amount was reduced to 0.5% when compounds were present. Treatment combinations and timing were as described above for Huh-7 cells. Primary human hepatocytes (CellzDirect/Life Technologies) were plated in collagen coated 96-well plates at 70 000 cells/well, then overlaid with Matrigel™ as recommended by the supplier. Cells were treated with compounds of interest with or without the indicated cytokines for a total of 72 h in the recommended media supplemented with 10% FBS and 0.1% DMSO (v/v). Media were collected for measurements of secreted proteins.
(§7) The ELISA kits for detection of complement C3, C4, C5 and C9 were obtained from AssayPro (St. Charles, Mo.), while the ELISA reagents for transferrin detection were from Bethyl Laboratories (Montgomery, Tex.). Data were collected on a Thermo Scientific Multiskan GO apparatus. Downregulation of expression of components of the complement cascade will result in reduced activity of the pathway and thus will constitute a positive result.

complement C4 protein = assay: Secreted complement protein ELISA, HepG2 cells; type: cell-based, human; settings: HepG2, 72 h, ± standard deviation
Method: as §5, §6, §7

complement C5 protein = assay: Secreted complement protein ELISA, HepG2 cells; type: cell-based, human; settings: HepG2, 72 h, ± standard deviation
Method: as §5, §6, §7

[1] = Huh-7, 48 h treatment, read-out: C3 (48 h) mRNA, half maximal inhibitory concentration (IC50)
[2] = read-out: C4a/C4b (72 h) mRNA, half maximal inhibitory concentration (IC50), Huh-7, 72 h treatment
[3] = read-out: C5 (72 h) mRNA, half maximal inhibitory concentration (IC50), Huh-7, 72 h treatment
[4] = Huh-7 pre-treated with cytokines
[5] = Huh-7 treated simultaneously with cytokines

Cc1sc2c(c1C)C(c1ccc(Cl)cc1)=N[C@@H](CC(=O)OC(C)(C)C)c1nnc(C)n1-2 [JQ1, (S)-tert-butyl 2-(4-(4-chlorophenyl)-2,3,9-trimethyl-6H-thieno[3,2-f][1,2,4]triazolo[4,3-a][1,4]diazepin-6-yl)acetate, reference compound]
IC50 (C3 mRNA; Huh-7, 48 h treatment (Table 3), read-out: mRNA expression in Huh-7 cells: IC50 (uM), C3): 0.18 µM
IC50 (C3 mRNA; [1]): 0.2 µM
IC50 (C4a/C4b mRNA; [2]): 0.07 µM
IC50 (C4a/C4b mRNA; Huh-7, 48 h treatment (Table 3), read-out: mRNA expression in Huh-7 cells: IC50 (uM), C4): 0.065 µM
IC50 (C5 mRNA; [3]): 270 nM
IC50 (C1S mRNA): 300 nM
IC50 (MBL2 mRNA): 160 nM
C3 secretion, percent maximum reduction in protein levels (complement C3 protein; 0.75 uM): 54 ± 5%
C4 secretion, percent maximum reduction in protein levels (complement C4 protein; 0.75 uM): 81 ± 9%
C5 secretion, percent maximum reduction in protein levels (complement C5 protein; 0.75 uM): 82 ± 7%

COc1cc(OC)c2c(=O)[nH]c(-c3cc(C)c(OCCO)c(C)c3)nc2c1 [RVX000222, 2-(4-(2-hydroxyethoxy)-3,5-dimethylphenyl)-5,7-dimethoxyquinazolin-4(3H)-one]
IC50 (C3 mRNA; [1]): 1.9 µM
expression of complement component 3 at the mRNA level (FIG. 3) (C3 mRNA; [4]): reduces expression
expression of complement component 3 at the mRNA level (FIG. 1) (C3 mRNA; [5]): reduces expression
IC50 (C4a/C4b mRNA; [2]): 5.4 µM
IC50 (C4a/C4b mRNA; Huh-7, 48 h treatment, read-out: C4a/C4b (48 h) mRNA, half maximal inhibitory concentration (IC50)): 6.3 µM
expression of complement component 4 at the mRNA level (FIG. 3) (C4a/C4b mRNA; [4]): reduces expression
expression of complement component 4 at the mRNA level (FIG. 1) (C4a/C4b mRNA; [5]): reduces expression
IC50 (C5 mRNA; [3]): 21800 nM
IC50 (C5 mRNA; Huh-7, 48 h treatment, read-out: C5 (48 h) mRNA, half maximal inhibitory concentration (IC50)): > 30000 nM
expression of complement component 5 at the mRNA level (FIG. 3) (C5 mRNA; [4]): reduces expression
expression of complement component 5 at the mRNA level (FIG. 1) (C5 mRNA; [5]): reduces expression
IC50 (C1S mRNA): 18900 nM
IC50 (MBL2 mRNA): 16300 nM
C3 secretion, percent maximum reduction in protein levels (complement C3 protein; 30 uM): 34 ± 5%
C4 secretion, percent maximum reduction in protein levels (complement C4 protein; 30 uM): 65 ± 5%
C5 secretion, percent maximum reduction in protein levels (complement C5 protein; 30 uM): 77 ± 4%
